Results: the NIST ThermoML archive (doi:10.1016/j.jct.2012.07.007)

Tests used:
[1] = excess molar enthalpy (molar enthalpy of mixing); xn = mol fraction of the nth substance listed; conditions: 298.15 K, 101 kPa, Liquid, 2-drop calorimetry
[2] = xn = mol fraction of the nth substance listed; conditions: 101 kPa, Liquid; for speed of sound: Linear variable-path acoustic interferometer; for mass density: Vibrating tube method

Cc1cccnc1 [3-methylpyridine] + CCn1cc[n+](C)c1.F[B-](F)(F)F
[1]
Conditions | excess molar enthalpy [kcal/mol]
x2 = 0.1256 | -0.0325
x2 = 0.1676 | -0.0409
x2 = 0.2089 | -0.0491
x2 = 0.2578 | -0.0586
x2 = 0.2976 | -0.0651
x2 = 0.3387 | -0.0702
x2 = 0.3898 | -0.0766
x2 = 0.4367 | -0.0814
x2 = 0.4876 | -0.0864
x2 = 0.5223 | -0.0882
x2 = 0.599 | -0.0898
x2 = 0.6345 | -0.089
x2 = 0.689 | -0.0861
x2 = 0.7356 | -0.081
x2 = 0.7909 | -0.0713
x2 = 0.8479 | -0.0582
x2 = 0.889 | -0.047
x2 = 0.9109 | -0.0393

[2]
Conditions | mass density, 293.15 K [kg/m3] | mass density, 298.15 K [kg/m3] | mass density, 303.15 K [kg/m3] | mass density, 308.15 K [kg/m3] | speed of sound, 293.15 K [m/s] | speed of sound, 298.15 K [m/s] | speed of sound, 303.15 K [m/s] | speed of sound, 308.15 K [m/s]
x2 = 0.1217 | 1024.56 | 1020.46 | 1016.63 | 1011.73 | 1479.9 | 1465 | 1443.4 | 1427
x2 = 0.1729 | 1050.57 | 1046.54 | 1042.83 | 1038.13 | 1494.7 | 1480.8 | 1459.7 | 1443.9
x2 = 0.2415 | 1082.96 | 1079.02 | 1075.3 | 1070.72 | 1514 | 1499.7 | 1481.3 | 1465.7
x2 = 0.2711 | 1096.07 | 1092.1 | 1088.37 | 1084.01 | 1521.8 | 1507.9 | 1490.3 | 1474.6
x2 = 0.3214 | 1117.16 | 1113.25 | 1109.49 | 1105.3 | 1535.6 | 1520.5 | 1504.5 | 1488.8
x2 = 0.3732 | 1137.38 | 1133.44 | 1129.62 | 1125.73 | 1548.8 | 1532.8 | 1519.4 | 1503.3
x2 = 0.4219 | 1154.95 | 1151.03 | 1147.27 | 1143.6 | 1560.1 | 1543.2 | 1532.2 | 1517
x2 = 0.4718 | 1171.59 | 1167.7 | 1163.94 | 1160.52 | 1571.8 | 1554.4 | 1544.1 | 1530
x2 = 0.5209 | 1186.68 | 1182.83 | 1179.2 | 1175.87 | 1581.6 | 1564 | 1556 | 1541.8
x2 = 0.5723 | 1201.17 | 1197.38 | 1193.82 | 1190.64 | 1591.9 | 1574.7 | 1566.4 | 1554.1
x2 = 0.6221 | 1214.02 | 1210.25 | 1206.88 | 1203.74 | 1600.3 | 1583.7 | 1576.1 | 1565.4
x2 = 0.6731 | 1226.02 | 1222.36 | 1219.18 | 1215.94 | 1607.5 | 1593 | 1585.5 | 1576.2
x2 = 0.7212 | 1236.43 | 1232.83 | 1229.78 | 1226.48 | 1614.1 | 1601.4 | 1592.8 | 1585.3
x2 = 0.7708 | 1246.34 | 1242.76 | 1239.81 | 1236.4 | 1619.1 | 1608.8 | 1598.7 | 1593.7
x2 = 0.8224 | 1255.77 | 1252.24 | 1249.34 | 1245.81 | 1623.7 | 1614.9 | 1604.2 | 1599.5
x2 = 0.8713 | 1264.1 | 1260.53 | 1257.58 | 1253.89 | 1627.2 | 1619.3 | 1607.5 | 1603
x2 = 0.9119 | 1270.62 | 1266.99 | 1263.93 | 1260.07 | 1629 | 1621.6 | 1609 | 1603.9
x2 = 0.9317 | 1273.7 | 1270 | 1266.86 | 1262.91 | 1629.8 | 1621.8 | 1609.2 | 1603.2

Cc1ccncc1 [4-methylpyridine] + CCn1cc[n+](C)c1.F[B-](F)(F)F
[1]
Conditions | excess molar enthalpy [kcal/mol]
x2 = 0.111 | -0.0311
x2 = 0.1679 | -0.0454
x2 = 0.2098 | -0.0558
x2 = 0.2387 | -0.0624
x2 = 0.2909 | -0.0731
x2 = 0.3267 | -0.0788
x2 = 0.379 | -0.0873
x2 = 0.4167 | -0.0925
x2 = 0.4834 | -0.0997
x2 = 0.5267 | -0.104
x2 = 0.5908 | -0.106
x2 = 0.615 | -0.106
x2 = 0.6786 | -0.101
x2 = 0.7234 | -0.0974
x2 = 0.7945 | -0.0841
x2 = 0.8346 | -0.0723
x2 = 0.889 | -0.0539
x2 = 0.9267 | -0.0389

[2]
Conditions | mass density, 293.15 K [kg/m3] | mass density, 298.15 K [kg/m3] | mass density, 303.15 K [kg/m3] | mass density, 308.15 K [kg/m3] | speed of sound, 293.15 K [m/s] | speed of sound, 298.15 K [m/s] | speed of sound, 303.15 K [m/s] | speed of sound, 308.15 K [m/s]
x2 = 0.1211 | 1022.19 | 1017.25 | 1012.54 | 1008.4 | 1485 | 1464.4 | 1448.9 | 1428.2
x2 = 0.1734 | 1048.92 | 1043.93 | 1039.26 | 1035.43 | 1499.5 | 1479.3 | 1464.5 | 1443.7
x2 = 0.2215 | 1072.35 | 1067.26 | 1062.71 | 1059.13 | 1512.2 | 1492.7 | 1478.1 | 1457.6
x2 = 0.2738 | 1096.49 | 1091.32 | 1086.94 | 1083.63 | 1525 | 1506.5 | 1492.3 | 1472.9
x2 = 0.3226 | 1117.74 | 1112.6 | 1108.38 | 1105.18 | 1536.7 | 1519.3 | 1505.1 | 1486.3
x2 = 0.3709 | 1137.61 | 1132.52 | 1128.45 | 1125.39 | 1548 | 1531.8 | 1517.3 | 1499.9
x2 = 0.4215 | 1157.13 | 1152.2 | 1148.31 | 1145.11 | 1558.7 | 1543.8 | 1529.7 | 1514.7
x2 = 0.4721 | 1175.31 | 1170.56 | 1166.92 | 1163.65 | 1568.6 | 1554.4 | 1541.8 | 1528.9
x2 = 0.5207 | 1191.56 | 1186.91 | 1183.59 | 1180.05 | 1576.9 | 1564.8 | 1553 | 1542.6
x2 = 0.5728 | 1207.52 | 1203.15 | 1200.15 | 1196.14 | 1585.7 | 1573.8 | 1564.2 | 1557.1
x2 = 0.6218 | 1221.15 | 1217.12 | 1214.3 | 1209.95 | 1593.2 | 1582.3 | 1574.8 | 1570.3
x2 = 0.6731 | 1234.15 | 1230.36 | 1227.81 | 1222.97 | 1600.4 | 1589.4 | 1585.1 | 1582.7
x2 = 0.7224 | 1245.2 | 1241.78 | 1239.32 | 1234.16 | 1607 | 1595.7 | 1594.6 | 1593.7
x2 = 0.7743 | 1255.49 | 1252.28 | 1249.84 | 1244.37 | 1613 | 1601.8 | 1602.4 | 1603.4
x2 = 0.8203 | 1263.45 | 1260.27 | 1257.85 | 1252.23 | 1617.3 | 1606.3 | 1608.5 | 1609.8
x2 = 0.8717 | 1270.96 | 1267.85 | 1265.24 | 1259.65 | 1622.3 | 1610.6 | 1612.2 | 1612.8
x2 = 0.9111 | 1275.81 | 1272.56 | 1269.8 | 1264.37 | 1625.3 | 1613.4 | 1613.3 | 1611.5
x2 = 0.9312 | 1278 | 1274.64 | 1271.69 | 1266.47 | 1626.7 | 1614.9 | 1613.3 | 1609.7
